Patent US10836792B2, “Retro-inverso peptide inhibitors of cell migration, extracellular matrix and endothelial invasion by tumor cells” (ISTITUTO NAZIONALE TUMORI IRCCS “FONDAZIONE G. PASCALE”, priority 2016, dated 2020)
Non-standard residues stand in square brackets, D forms with d. Residues, ends and D or L forms follow the SMILES beside them. Aib = CC(C)(N)C(=O)O

How the values were obtained:
[1] = system: ovarian carcinoma SKOV-3 cells; assay: Matrigel invasion (xCELLigence RTCA), SKOV-3; assay type: cell-based, human; settings: 10 nM, 20 hrs
Method: (§1) FIG. 8 At the concentration of 10 nM the retro-inverso peptide RI-3 prevents matrigel invasion of tumor cells from human osteosarcoma Saos-2 (A), chondrosarcoma Sarc (B), melanoma A375 (C), metastatic melanoma A375M6 (D), ovarian carcinoma SKOV-3 cells (E), or primary ovarian cancer cells derived from a tumor excision (OV-53) (F), as monitored in real-time for 20 hr as changes in cell index by the xCELLigence RTCA system (Example 8).
(§2) To investigate the ability of RI-3 to prevents matrigel invasion of tumor cells form different tissue origins, human osteosarcoma Saos-2 (A), chondrosarcoma Sarc (B) melanoma A375 (C), metastatic melanoma A375M6 (D), ovarian carcinoma SKOV-3 cells (E) or primary ovarian cancer cells derived from a tumor excision (OV-53) (F) were seeded on polymerized matrigel and allowed to invade matrigel in the absence (None) or in the presence of 10 nM RI-3. Cell invasion was monitored in real-time for 20 hrs as changes in cell index by the xCELLigence RTCA system. Data represent mean±SD from quadruplicate experiments. All cell lines were able to cross matrigel, although to a different extent. In all case RI-3 reduced matrigel invasion by about 30%, 31%, 64%, 57%, 53% and 68%, of Saos-2, Sarc, A375, A375M6, SKOV-3 and OV-53 cells, respectively.

[2] = system: HT1080 cells; assay: Proliferation of HT1080 cells (xCELLigence); assay type: cell-based, human; settings: 10 μM, 2-26 time range
Method: Cell proliferation of HT1080 cells was monitored for 75 hrs using the xCELLigence technology. Cells (1×10^3 cells/well) were seeded on E-plates in growth medium (None) or growth medium plus 10 μM RI-3 and allowed to proliferate at 37° C., 5% CO2. Medium was replaced every 24 hrs (arrows). Impedance value of each well was automatically monitored and expressed as cell index. Data represent mean±SD from a quadruplicate experiment representative of 2 replicates (A). […] In the 2-26 time range the doubling times of cells exposed to diluents or to RI-3 were 16.3828+/−0.22 hrs and 17.7648+/−0.27 hrs, respectively (B).

[3] = system: melanoma A375; assay: Matrigel invasion (xCELLigence RTCA), A375; assay type: cell-based, human; settings: 10 nM, 20 hrs
Method: as §1, §2

[4] = biological target: T1, FPR1 (Homo sapiens, UniProt P21462); assay: Competition with FITC-fMLF binding to RBL-2H3/ETFR cells stably expressing FPR1; settings: 100 nM pre-incubation 60 min at 4° C., then 10 nM FITC-fMLF
T1 construct: expressed in transfected cells; host or cells: rat basophilic leukaemia RBL-2H3/ETFR cells
T1 sequence (P21462 1-350): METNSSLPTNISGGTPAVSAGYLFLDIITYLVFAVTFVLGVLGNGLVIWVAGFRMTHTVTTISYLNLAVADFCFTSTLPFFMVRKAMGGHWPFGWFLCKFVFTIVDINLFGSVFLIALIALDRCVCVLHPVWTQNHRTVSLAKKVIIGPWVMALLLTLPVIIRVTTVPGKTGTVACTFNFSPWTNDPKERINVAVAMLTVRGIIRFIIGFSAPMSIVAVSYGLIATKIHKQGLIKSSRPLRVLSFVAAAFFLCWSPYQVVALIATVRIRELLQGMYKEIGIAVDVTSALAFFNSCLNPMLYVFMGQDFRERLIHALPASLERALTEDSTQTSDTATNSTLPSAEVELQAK
Method: Cell-associated fluorescence was measured using a fluorescence plate reader. The results are depicted in FIG. 3. […] To evaluate the effect of RI-3 on agonist-dependent FPR1 internalization, binding experiments were performed at 37° C. and cells were visualized using a Zeiss 510 Meta LSM microscope. Original magnifications: 630×. Scale bar: 10 μm.

[5] = system: human Sarc cells; assay: Human Sarc cell tumors in the flank of CD1 nude mice; assay type: in vivo; settings: 6 mg/Kg i.p. every day for 10 days
Method: FIG. 11 The intraperitoneal (i.p.) administration of 6 mg/Kg of the retro-inverso peptide RI-3 every day for 10 days reduces in vivo tumor growth and vascular infiltration by human chondrosarcoma Sarc cells in nude mice. (A) Time-dependent average of treated and control mice. (B) Tumor volumes measured at different time points. (C) Tumors excised after 10 days. (D) CD31 immuno-staining of formalin fixed paraffin sections of the excised tumors. (E) Counts of vascular channels harboring red blood cells on CD31 immuno-stained sections. (F) Quantification of Circulating Tumor Cells (CTCs). (Example 11)
Ten six-eight week old, CD1 female nude mice received the injection of human Sarc cells as a single-cell suspension (1×10^6 cells in 100 μl PBS, 96% viability) into the right flank. Five animals received i.p-administration of 6 mg/Kg RI-3 every day for 10 days, and five received injections of vehicle only (CTRL). A. Time-dependent average weight was monitored every two days. B. Tumor volumes measured at different time points with a caliper, using the formula: ½×(width)^2×length (mm). After 10 days, blood samples (˜500 μL/mouse) from the retroorbital venous plexus of mice were collected and processed for determination of Circulating Tumor Cells (CTC)s. Then, animals were sacrificed and the excised tumors (C) were fixed in buffered formalin and processed for paraffin sectioning. Tumor vascularization was assessed by counting vascular channels harbouring red blood cells on CD31 immuno-stained sections (D) in 5 randomly chosen fields per section, in at least two sections per tumor at ×200 (E). To quantify CTCs, DNA from nucleated cells of murine blood samples was purified and quantitated by Real-Time PCR using primers targeting human Alu-sequences. Number of CTCs was calculated by comparing the obtained amplification curves with others generated in spiking experiments, which were included in every run (F).
Tumor volumes of vehicle- and RI-3-treated mice were 445+/−285 and 112+/−41 mm^3, respectively, with p<0.05 (B). After 10 days, animals were sacrificed and tumors excised (C). According with the ability of RI-3 to prevent in vitro formation of a capillary network, the intratumoral microvessel density was reduced in tumors from animals treated with RI-3 as compared to those treated with vehicle alone (D-E).

CC(=O)N[C@H](Cc1ccc(O)cc1)C(=O)N[C@H](CCCNC(=N)N)C(=O)NC(C)(C)C(=O)N[C@H](CCCNC(=N)N)C(N)=O [RI-3, Ac-(D)-Tyr-(D)-Arg-Aib-(D)-Arg-NH2] (Ac-[dY][dR][Aib][dR]-NH2)
reduction of matrigel invasion [1]: ~53% | doubling time during exponential growth [2]: 17.7648 ± 0.27 h | reduction of matrigel invasion [3]: ~64% | inhibition of binding of fluorescent agonist (FITC-fMLF) to RBL-2H3/ETFR cells [4]: to a similar extent as compared to fMLF | body weight [5]: without clear changes in body weight | mice with CTCs in blood samples [5]: 3/5 | reduction of the number of circulating sarcoma cells in murine blood samples [5]: 74.5% | signs of toxicity [5]: no signs of toxicity | tumor volume [5]: 112+/−41 mm^3 | Circulating Tumor Cells in blood ([5]; blood after 10 days): 2.4+/−2 CTCs/mL | intratumoral microvessel density (CD31) ([5]; vs vehicle): reduced
